Each structure is given as a SMILES string.

Data set [1] relates to bronchospasm induced by hystamine. Put plainly: Antibronchospastic activity in the guinea-pig, method of Konzett and Rossler. The conditions noted are these: drug i.v., inhibition of bronchospasm by hystamine (6 to 20 mg/kg i.v.), relative to theophylline, taken equal to 100. It counts as in vivo. On the procedure: Spotted female guinea-pigs, with a body weight of 300-500 g., are used.
As a spasmogenous agent, hystamine (6 to 20 mg/kg i.v.) is used. The activity is defined as percent inhibition of the bronchospasm induced by hystamine in the presence of the drug (i.v. administered), compared to the one of hystamine alone in the presence of the solvent.
The drugs are dissolved into 2% dimethylformamide in physiological solution (solvent).

A short description of data set [2]: Acute toxicity: LD50 in the mouse after a single oral administration. The settings on record: in vivo, mortality at 14th day, Litchfield and Wilcoxon. How it is done:
Method for studying LD50 in the mouse after a single oral administration.
Groups of 10 Swiss albine, female, adult mice (20-22 g), fasting from the evening preceding the test, are treated orally with various doses (4 to 5) of the test drugs, dissolved/suspended in 1% hydroxycellulose (volume administered 20 ml/kg). Thereafter, the animals are fed again (Morini MIL fodder for mice).
The 50% lethal dose (LD50) is calculated by the method of Litchfield J. T. and Wilcoxon F. (J. Pharmacol. 96, 99-113, 1949) by utilizing the mortality data as obtained at the 14th day after the drug treatment.

Data set [3] concerns mucoproduction (bronchial secretion). Put plainly: Bronchosecretagogue activity: mucoproduction in the rabbit according to Scuri. Format: in vivo. The settings on record: for Bronchosecretagogue activity: rabbit, oral, percent increase of mucoproduction II vs I period, relative to d,l-trans-sobrerol, taken equal to 100. How it is done: Method of mucoproduction in the rabbit according to Scuri R. et al, Boll. Chim. Farm.
Male brown rabbits weighing 2.8-3.5 kg are used. To said animals, by a surgical operation under anaesthesia, a T shaped tracheal cannula is applied, as described in the above mentioned bibliographic reference.
To the cannula, a container (a polypropylene 2 ml test tube) is applied for periodical collection of the bronchial secretion.
The study of mucoproduction, started at the fourth day after the operation, is divided into two 4 hour periods for collecting and measuring the mucus, and precisely from 8:30 to 12:30 (I) and from 12:30 to 16:30 (II).
The activity of each drug is tested by administering the same by oesophageal way (os) at the begining of the II period and by evaluating the percent increase of mucoproduction (weight of the mucus as collected) over the II period as compared to the I period.

Data set [4] in a line: Pharmacocinetics: plasma levels (HPLC) and presence in tracheo-bronchial excretion and pulmonary tissue. Format: in vivo, Wistar rats. The settings on record: rat, 300 mg/kg oral. How it is done: Two groups of Wistar rats (165.div.250 g) are utilized. Before treatment, the animals were fasting for about 15 hours and were allowed to drink a 10% glucose solution ad libitum.
To the first group, the compound of formula (I) of this invention, orally (transoesophageal intubation) at the dose of 300 mg/kg is administered (a single administration) and at 0.5 h; 1 h; 1.5 h; 2 h; 3 h; 4 h; and 6 h from administration 5 rats/time are sacrificed. The blood, as collected into test tubes containing sodium heparin is centrifuged, and the plasma so obtained is utilized for quantitative analysis of the product, by means of high pressure liquid chromatography (HPLC) with an U.V. detector. To the second group, the compound of formula (I) of this invention at the dose of 300 mg/kg orally is administered (a single administration), and at 1 h and 2 h from administration, 5 rats/time are sacrificed (by bleeding). To each rat, trachea, bronchia and lungs are withdrawn. From trachea and bronchia, by means of two washings with a 0.5 ml syringe containing physiological solution, introduced into the trachea, the tracheo-bronchialexcretion is recovered, which is utilized to evaluate quantitatively the presence of the compound of formula (I) of the present invention. The pulmonary tissue, to which a KCl solution has been added, is homogenized by an ultra Turrax apparatus and utilized for the quantitative testing of the presence of the compound of formula (I) of this invention. […] In relation to the activity shown on by the compound of the invention as a mucosecretolytic-fluidizing-anti-bronchospastic agent, the present invention further provides pharmaceutical compositions containing the compound of formula (I) of this invention in dosage units.

The subject of data set [5] is bronchial mucus of bronchitic rabbits. Put plainly: Fluidizing "in vivo" activity: viscosity of the bronchial mucus of bronchitic rabbits. On the set-up: species or system rabbit. The settings on record: for Fluidizing "in vivo" activity of bronchial mucus: bronchitic rabbits, oral, relative to d,l-trans-sobrerol taken equal to 100. On the procedure:
Method for studying viscosity of the bronchial mucus of a bronchitic rabbit.
Viscosity of the mucus as withdrawn is studied by using a Contraves RM16 microviscosimeter and it is recorded by a Rheomat 15T-FC apparatus.

What is called LD50 is the dose at which mortality reaches 50%. Higher therefore signals a less toxic substance. For `CC1=CC[C@H](C(C)(C)O)C[C@H]1OC(=O)Cn1cnc2c1c(=O)n(C)c(=O)n2C` (relative stereo) [CO/1488, 5-hydroxy-α,α-4-trimethyl-3-cyclohexene-1-methanol-5-[2[7[1,2,3,6-tetrahydro-1,3-dimethyl-2,6-dioxopurinyl]]]acetate], the Antibronchospastic activity in data set [1] is reported as 143. The LD50 at 336 h in data set [2] came out at 1900 mg/kg. The molecule also came in with a Bronchosecretagogue activity in data set [3] of 128. In addition, the “mucosecretolytic activity compared with d,l-trans-sobrerol, in words” value in data set [3] (summary statement) is reported as “slight potency increase”. In data set [4] (1 h and 2 h), the “presence at the level of tracheo-bronchial mucus” value is listed as “found also at the level of tracheo-bronchial mucus” and the “presence in the pulmonary parenchyma” value was “in the pulmonary parenchyma”. Besides, the “absorption (course of the plasmatic levels)” value in data set [4] (single administration, plasma 0.5 to 6 h) is “quick and good absorption”. In addition, the “Fluidizing "in vivo" activity of bronchial mucus” value (shortened to “Fluidizing "in vivo" activity”) in data set [5] was determined as 110. Also, the “fluidizing activity compared with d,l-trans-sobrerol, in words” value in data set [5] (summary statement) is “slight potency increase”.
As for `CC1=CC[C@H](C(C)(C)O)C[C@H]1O` (relative stereo) [d,l-trans-sobrerol], the Antibronchospastic activity in data set [1] is on record as 0. In data set [3], the Bronchosecretagogue activity is on record as 100. Besides, the “Fluidizing "in vivo" activity” value in data set [5] stood at 100.
In data set [1], `Cn1c(=O)c2[nH]cnc2n(C)c1=O` [theophylline] had an Antibronchospastic activity of 100. The Bronchosecretagogue activity in data set [3] was found to be 0. Also, the “Fluidizing "in vivo" activity” value in data set [5] was determined as 0.

(Values after patent US4652568A, “Theophylline-7-acetic acid ester of d,l-trans-sobrerol having mucosecretolytic-fluidizing and antibronchospastic activity, a process for its preparation and pharmaceutical compositions thereof” (priority 1984, dated 1987).)
